Assay: Solubility of CP and CP-A peptides
Format: physicochemical
Text: A variety of solvents and carriers can be tested to improve their solubility. Solvents and/or carriers that improve solubility of CP and CP-A include, but are not limited to, ethanol, dimethylsulphoxide (DMSO), dimethyl formamide (DMF), and trifluoracetic acid (TFA). When using DMSO as a solvent, the final concentration used in the cell function experiments may range from 0.063%-0.250%. Stock solutions of CP and CP-A can be prepared in DMSO and used at a 1:2000, 1:1000, or 1:400 dilution. In one embodiment, drug delivery systems (i.e., for example, lipid vesicles) can be used to increase solubility and bioavailability of CP and CP-A.

Row | solubility in aqueous solutions | Substance
1 | insoluble in aqueous solutions | H-GFLSASLVF-OH [CP-A, NH2-Gly-Phe-Leu-Ser-Ala-Ser-Leu-Val-Phe-OH]
2 | insoluble in aqueous solutions | H-GFLSKSLVF-OH [CP, NH2-Gly-Phe-Leu-Ser-Lys-Ser-Leu-Val-Phe-OH]
